Assay results taken from ChEMBL document CHEMBL1201862, “PubChem BioAssay data set” (2004).
The source made the active and inactive calls.

Legend:
[1] = molecular target: T1, Trace amine-associated receptor 1 (Homo sapiens, UniProt Q96RJ0); test: Counterscreen for agonists of the human trace amine associated receptor 1 (hTAAR1): Fluorescence-based cell-based high throughput dose response assay to identify hTAAR1 agonist that also desensitize TAAR1 receptor response.; format: functional
T1 sequence (Q96RJ0 whole entry): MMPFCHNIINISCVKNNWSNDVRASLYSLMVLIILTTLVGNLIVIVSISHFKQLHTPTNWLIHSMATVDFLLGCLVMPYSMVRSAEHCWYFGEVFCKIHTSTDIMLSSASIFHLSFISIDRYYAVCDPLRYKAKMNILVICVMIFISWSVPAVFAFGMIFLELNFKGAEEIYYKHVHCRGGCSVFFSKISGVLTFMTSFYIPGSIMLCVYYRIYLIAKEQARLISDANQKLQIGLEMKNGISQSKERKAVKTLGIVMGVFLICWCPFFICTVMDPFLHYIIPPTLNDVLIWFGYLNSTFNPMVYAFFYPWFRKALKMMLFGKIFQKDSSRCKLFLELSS

cells [2] = format: functional, cell-based
[3] = molecular target: Potassium voltage-gated channel subfamily KQT member 2 (Rattus norvegicus, UniProt O88943); test: potentiation of rat KCNQ2 current – cell-based, retigabine-insensitive compounds, dose response (AID 2654); format: functional
Sequence of Potassium voltage-gated channel subfamily KQT member 2 (O88943 whole entry): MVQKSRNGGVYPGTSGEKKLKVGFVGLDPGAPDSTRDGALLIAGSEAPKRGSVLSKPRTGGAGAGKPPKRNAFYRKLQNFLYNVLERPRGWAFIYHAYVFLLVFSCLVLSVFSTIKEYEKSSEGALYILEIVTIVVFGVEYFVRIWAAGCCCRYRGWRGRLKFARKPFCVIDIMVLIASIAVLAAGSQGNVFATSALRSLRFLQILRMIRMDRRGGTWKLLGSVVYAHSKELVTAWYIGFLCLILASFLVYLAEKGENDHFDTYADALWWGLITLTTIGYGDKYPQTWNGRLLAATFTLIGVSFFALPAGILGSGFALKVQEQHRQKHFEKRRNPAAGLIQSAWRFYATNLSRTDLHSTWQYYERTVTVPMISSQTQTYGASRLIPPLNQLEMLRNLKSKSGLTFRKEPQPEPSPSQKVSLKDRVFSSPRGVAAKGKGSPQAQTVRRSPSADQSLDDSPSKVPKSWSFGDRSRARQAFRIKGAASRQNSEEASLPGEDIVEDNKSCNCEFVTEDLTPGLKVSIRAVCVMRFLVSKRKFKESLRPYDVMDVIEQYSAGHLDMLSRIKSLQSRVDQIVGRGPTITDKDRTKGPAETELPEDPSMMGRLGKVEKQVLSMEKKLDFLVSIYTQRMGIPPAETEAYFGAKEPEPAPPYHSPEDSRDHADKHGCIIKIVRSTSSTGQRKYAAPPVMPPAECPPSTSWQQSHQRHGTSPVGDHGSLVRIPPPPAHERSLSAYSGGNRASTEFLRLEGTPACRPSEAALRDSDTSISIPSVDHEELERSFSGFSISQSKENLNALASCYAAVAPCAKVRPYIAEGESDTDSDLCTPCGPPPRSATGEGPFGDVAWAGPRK

[4] = molecular target: T1, Trace amine-associated receptor 1; test: Fluorescence-based cell-based high throughput dose response assay to identify agonists of the human trace amine associated receptor 1 (TAAR1).; format: functional
cells [5] = format: functional, cell-based; remark: listed apart in the source
[6] = molecular target: T2, Neuropeptide Y receptor type 1 (Homo sapiens, UniProt P25929); test: Fluorescence-based dose response cell-based high-throughput screening assay for agonists of NPY-Y1. [Related pubchem assays: 1697 (Screening assay (NPY-Y1 agonists).), 1359 (Screening assay (NPY-Y2 potentiators or agonists).), 1304 (Screening assay (NPY-Y1 potentiators or agonists).), 1704 (Screening assay (CNGC inhibitors).), 1791 (Summary AID.)]; format: functional
T2 sequence (P25929 whole entry): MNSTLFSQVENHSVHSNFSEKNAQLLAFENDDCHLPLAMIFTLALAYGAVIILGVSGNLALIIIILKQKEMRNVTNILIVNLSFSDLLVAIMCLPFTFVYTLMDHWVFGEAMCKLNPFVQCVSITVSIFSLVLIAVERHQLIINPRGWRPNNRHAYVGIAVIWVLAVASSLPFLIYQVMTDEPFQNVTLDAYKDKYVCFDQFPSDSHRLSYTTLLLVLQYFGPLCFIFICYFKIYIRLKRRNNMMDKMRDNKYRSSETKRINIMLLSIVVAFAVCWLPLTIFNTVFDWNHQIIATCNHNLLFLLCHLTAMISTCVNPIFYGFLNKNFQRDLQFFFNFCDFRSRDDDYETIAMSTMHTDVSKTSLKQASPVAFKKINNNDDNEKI

HEK293 [7] = test: Fluorescence-based counterscreen for potentiators or agonists of NPY-Y1: cell-based high-throughput dose response assay for inhibitors of cyclic nucleotide gated ion channel (CNGC) activity. In this assay, the parental HEK293 cell line transfected with a cyclic-nucleotide gated ion channel (CNGC)-based cAMP sensor is used to measure inhibition of isoproterenol-induced CNGC …; format: functional; conditions: Homo sapiens
[8] = molecular target: T3, Neuropeptide Y receptor type 2 (Homo sapiens, UniProt P49146); test: Fluorescence-based counterscreen for agonists of NPY-Y1: cell-based high-throughput dose response assay for agonists of NPY-Y2.; format: functional
T3 sequence (P49146 whole entry): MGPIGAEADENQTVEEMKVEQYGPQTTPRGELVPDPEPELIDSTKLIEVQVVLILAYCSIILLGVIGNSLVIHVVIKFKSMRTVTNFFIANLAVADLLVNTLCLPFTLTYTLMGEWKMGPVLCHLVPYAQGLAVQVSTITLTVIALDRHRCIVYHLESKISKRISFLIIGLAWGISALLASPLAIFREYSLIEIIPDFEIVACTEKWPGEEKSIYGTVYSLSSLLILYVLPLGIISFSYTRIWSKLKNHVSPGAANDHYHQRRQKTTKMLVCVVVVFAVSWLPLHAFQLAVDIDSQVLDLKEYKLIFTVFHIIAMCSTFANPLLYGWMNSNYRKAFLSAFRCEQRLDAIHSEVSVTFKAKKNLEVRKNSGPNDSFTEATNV

[9] = Luminescence Cell-Based Dose Confirmation HTS to Identify Inhibitors of Platelet Dense Granule Release. [Related pubchem assays: 1663 (Primary HTS), 1678 (Summary of Project)]; format: functional
[10] = tested on: Streptococcus sp. 'group A'; test: Streptococcus pyogenes SK(-)GAS viability under kanamycin – luminescence, BacTiterGlo, confirmation, counter-screen for streptokinase expression inhibitor project, dose response (AID 1900); format: functional, organism-based
Streptococcus = test: GAS UMAA2166 growth inhibition – luminescence, BacTiterGlo, counter-screen for streptokinase expression inhibitor project, dose response (AID 1915); format: functional, organism-based;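 further: potency for reduction of bacterial viability or growth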
HeLa = test: viability loss in HeLa cells – cell-based, 24 h, cherry-picked samples, cytotoxicity control, dose response (AID 504726); format: functional; conditions: Homo sapiens;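 further: potency for cytotoxicity as loss of luminescence signal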
[11] = Fluorescence Cell-Based Dose Response to Identify Inhibitors of Thrombin Receptor-Activating Peptide SFLLRN-Mediated P-Selectin Induction on Platelets. [Related pubchem assays: 1663 (Primary HTS), 1889 (retest at dose ), 1891 (counterscreen), 1678 (Project Summary)]; format: functional
HEK293 [12] = test: Fluorescence-based counterscreen for potentiators or agonists of NPY-Y2: cell-based high-throughput dose response assay to identify inhibitors of cyclic nucleotide gated ion channel (CNGC) activity. In this assay, the parental HEK293 cell line transfected with a cyclic-nucleotide gated ion channel (CNGC)-based cAMP sensor is used to measure inhibition of isoproterenol-induced CNGC activity by test compound.; format: functional; conditions: Homo sapiens
[13] = molecular target: T4, Eukaryotic translation initiation factor 2-alpha kinase 3 (Homo sapiens, UniProt Q9NZJ5); test: Counterscreen assay for PERK inhibitors: Dose response cell-based high throughput screening assay to measure inhibition of PERK at 6 hours. [Related pubchem assays: 1522, 1416 ]; format: functional
T4 sequence (Q9NZJ5 whole entry): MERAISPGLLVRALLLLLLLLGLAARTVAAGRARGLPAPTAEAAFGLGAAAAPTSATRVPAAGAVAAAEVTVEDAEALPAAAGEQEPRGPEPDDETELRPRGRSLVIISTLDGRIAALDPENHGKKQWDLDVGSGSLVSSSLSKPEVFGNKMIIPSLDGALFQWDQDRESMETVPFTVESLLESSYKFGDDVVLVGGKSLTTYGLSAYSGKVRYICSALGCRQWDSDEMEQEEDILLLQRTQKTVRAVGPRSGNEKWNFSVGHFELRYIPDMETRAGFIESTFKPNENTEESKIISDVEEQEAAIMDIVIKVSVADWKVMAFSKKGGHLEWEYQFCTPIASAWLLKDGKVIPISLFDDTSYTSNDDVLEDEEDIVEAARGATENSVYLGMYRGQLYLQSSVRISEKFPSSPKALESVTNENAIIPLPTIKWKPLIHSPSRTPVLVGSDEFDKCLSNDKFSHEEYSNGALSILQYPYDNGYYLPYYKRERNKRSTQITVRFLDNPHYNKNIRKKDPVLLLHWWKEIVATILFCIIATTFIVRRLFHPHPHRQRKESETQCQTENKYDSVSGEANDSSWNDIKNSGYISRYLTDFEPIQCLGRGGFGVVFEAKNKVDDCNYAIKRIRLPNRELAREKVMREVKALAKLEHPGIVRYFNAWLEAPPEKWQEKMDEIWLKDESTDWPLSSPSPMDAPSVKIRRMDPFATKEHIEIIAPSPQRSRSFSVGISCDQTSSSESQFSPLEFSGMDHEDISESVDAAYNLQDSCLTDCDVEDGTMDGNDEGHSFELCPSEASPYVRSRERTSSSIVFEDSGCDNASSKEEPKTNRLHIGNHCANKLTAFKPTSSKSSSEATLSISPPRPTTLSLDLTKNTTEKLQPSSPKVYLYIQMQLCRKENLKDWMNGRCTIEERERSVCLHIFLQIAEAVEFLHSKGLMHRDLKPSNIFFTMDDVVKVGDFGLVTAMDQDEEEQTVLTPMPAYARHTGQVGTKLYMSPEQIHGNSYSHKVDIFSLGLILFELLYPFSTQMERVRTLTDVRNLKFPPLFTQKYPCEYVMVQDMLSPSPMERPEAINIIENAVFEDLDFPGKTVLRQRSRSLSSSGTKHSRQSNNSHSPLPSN

[14] = molecular target: T2, Neuropeptide Y receptor type 1; test: Fluorescence-based counterscreen for agonists of NPY-Y2: cell-based high-throughput dose response assay for agonists of NPY-Y1.; format: functional
[15] = molecular target: T4, Eukaryotic translation initiation factor 2-alpha kinase 3; test: Dose response cell-based high-throughput screening assay to measure PERK inhibition. [Related pubchem assays: 1416 ]; format: functional
[16] = molecular target: T3, Neuropeptide Y receptor type 2; test: Fluorescence-based cell-based high-throughput dose response assay for agonists of NPY-Y2. [Related pubchem assays: 1703 (Screening assay (CNGC inhibitors).), 1359 (Screening assay (NPY-Y2 potentiators or agonists).), 1304 (Screening assay (NPY-Y1 potentiators or agonists).), 1710 (Screening assay (NPY-Y2 agonists).), 1791 (Summary AID.)]; format: functional
[17] = molecular target: Dual specificity protein phosphatase 3 (Homo sapiens, UniProt P51452); test: inhibition constants for human DUSP3 – biochemical, colorimetric, SAR follow-up (AID 2004)
Sequence of Dual specificity protein phosphatase 3 (P51452 whole entry): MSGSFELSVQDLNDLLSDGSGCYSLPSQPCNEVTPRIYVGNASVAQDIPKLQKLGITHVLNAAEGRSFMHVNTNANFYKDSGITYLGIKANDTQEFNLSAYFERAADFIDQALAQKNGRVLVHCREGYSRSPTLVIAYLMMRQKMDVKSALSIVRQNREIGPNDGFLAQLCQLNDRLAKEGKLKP

O=C(Nc1cccnc1)Nc1cccc(F)c1
IC50 [1]: 5.05 µM (active) | IC50 (cells [2]): > 29.9 µM (inactive) | EC50 [3]: 6.28 µM (active) | EC50 [4]: 0.675 µM (active) | EC50 (cells [5]): > 29.9 µM (inactive)

Cc1ccccc1OCC(O)CN1CCN(CC(O)COc2ccccc2C)CC1 (centres undefined)
EC50 [6]: > 35.4 µM (not active) | IC50 (HEK293 [7]): 12 µM (not active) | EC50 [8]: > 35.4 µM (not active)

Oc1nc2c(s1)C=Nc1ccccc1N2
EC50 [9]: 1.17 µM (active) | EC50 [10]: > 150 µM (not active) | EC50 (Streptococcus): > 150 µM (not active) | AC50 (HeLa): 71.5 µM (active) | EC50 [11]: < 0.3 µM (active)

COCCOC(=O)C(CC(=O)O)NCc1ccco1 (centres undefined)
EC50 (HEK293 [12]): > 35.4 µM (not active) | EC50 [13]: > 55.7 µM (not active) | EC50 [14]: > 35.4 µM (not active) | EC50 [15]: > 55.7 µM (not active) | EC50 [16]: > 35.4 µM (not active)

CC(C)=C1C(=O)NN(c2ccccc2)C1=O
Ki [17]: 71 µM (inactive)
